Data set [1] has as its system HCT116 cells. Nature of the data set: Competitive labelling with pimonidazole (mass cytometry). The data set is classed as cell-based. The conditions noted are these: HCT116, Telox-2 10 μM, near-anoxic. Here is the method:
Concentration Telox-2=10 μM. The absolute ^130Te signal was measured using mass cytometry.
HCT 116 cells (see sections i and ii) were incubated in media containing Telox or Telox2 (100 μM, added as a neat solution in sterile DMSO; final [DMSO]=0.1%) for 3 hours under atmosphere containing an appropriate concentration of O2. Following incubation, the media was removed, cells were washed with sterile PBS, and then separated from the incubation plate via trypsinization (37° C., 10 min) and gentle scraping. The cell suspension was pelleted and resuspended in PBS containing β-ME (1.0 mL, 100 mM). Cells were pelleted, resuspended in PBS (900 μL, no β-ME), and fixed with formaldehyde (100 μL, 37% solution) for 25 minutes. Following fixation, cells were pelleted, resuspended in PBS containing β-ME (1.0 mL, 100 mM), and pelleted once again. Cells were then resuspended in PBS ([…], no β-ME) and incubated with either the Ir-containing nucleic acid intercalator (hypoxic cells) or the Rh containing nucleic acid intercalator (normoxic cells) (10 μL, 100 μM solution in sterile PBS) for 20 minutes. Cells were then pelleted and resuspended in PBS (1.0 mL, no β-ME) twice. Cell pellets were then resuspended in PBS containing ^151/153EU beads (1/10 dilution of CyTOF® calibration beads, DVS Sciences, 1.0-2.5 mL depending on pellet size). […]

For data set [2], the system named is NADPH:cytochrome P450 oxidoreductase (POR). The data set is classed as cell-based. The conditions noted are these: mutant HCT116, 10 μM, 3 hours. Here is the method: FIGS. 10A-C show a) the mass cytometry histograms of wild-type HCT116 cells incubated with 10 μM of the exemplary compound, Telox-2, for 3 hours in atmosphere containing either 21% O2, 1% O2, 0.2% O2, or <0.02% O2); b) the mass cytometry histograms of mutant HCT116 cells overexpressing POR incubated with 10 μM Telox-2 for 3 hours in atmosphere containing either 21% O2, 1% O2, 0.2% O2 or <0.02% O2; and c) the mass cytometry histograms of mutant HCT116 cells unable to express POR incubated with 10 μM Telox-2 for 3 hours in atmosphere containing either 21% O2, 1% O2, 0.2% O2, or <0.02% O2.
To confirm the reductive metabolism of Telox-2 it investigated using mutant HCT116 cell lines that either overexpressed NADPH:cytochrome P450 oxidoreductase (POR) or had this enzyme knocked out (FIG. 10 part b).

Data set [3] can be described thus: Empirical log P by UV-Vis assay. The data set is classed as physicochemical. The conditions noted are these: aqueous buffer; UV-Vis assay conditions.

One may read the logP as the decadic logarithm of the partition coefficient of the neutral form, usually between octanol and water. A low value points to lower lipophilicity. As to `O=[N+]([O-])c1nccn1CCc1ccc[te]1` [Telox-2, 2-nitro-1-(2-(tellurophen-2-yl)ethyl)-1H-imidazole], in data set [1], the “labelling under competitive conditions with pimonidazole” value was “reduced in a (pimonidazole) dose-dependent manner”. Further, in data set [2], the “labelling in POR-knockout cell line compared to wild type” value is recorded as “nearly identical to that in the wild type” and the “labelling in cell line overexpressing POR compared to wild type” value was “greatly enhanced labelling”. The log partition coefficient (logP) in data set [3] was determined as 1.3.

Source of the values: US10816552B2 (The Governing Council of the University of Toronto, priority 2014, dated 2020).
